# Key:
# Nrf2 = Nrf2 Western blot in bEnd.3 cells; type: cell-based, mouse; details: lipoic acid 1 mM alone; FIG. 9
# Protocol: Culture of bEnd.3 Cells for Nrf2 Study—Mouse brain endothelial (b.End3) cells are grown and maintained in DMEM supplemented with 10% fetal bovine serum and 1% penicillin streptomycin. Once cells reach 90% confluence, cells are split in a 1-to-5 ratio.
# Treatment of bEnd.3 Cells for Nrf2 Study—b.End3 cells are seeded on 10-cm petri dishes. On day 4, half of the old media is discarded and replaced with fresh media.
# Nrf2 Western blotting—Cell extraction is performed using Cell Lysis Buffer and the provided protocol (ThermoFisher #FNN0011). Proteins are quantified using Bradford assay (Thermofisher #1863028). Same amounts of proteins of each lysate (20 μg) are loaded on an SDS-PAGE gel under reducing conditions (unless stated otherwise). Membrane transfer is done overnight (about 18 hours) in cold room and blocked with 5% dry milk/TBST the next day. Subsequently, the membrane is incubated with primary antibodies overnight (about 18 hours) and with secondary antibodies for an hour in blocking solution. Signals are developed with ECL (ThermoFisher #A43840) and captured with ChemiDoc™ Imaging System.
# DS lymphocytes = test: AP39 challenge of DS lymphocytes; type: cell-based, human; details: DS cells; 5 μM AP39; p<0.05; FIG. 10
# Description: (§1) Age-matched and sex-matched DS-donor and apparently healthy individual (AHI) lymphocytes (Coriell Institute, Camden, NJ) are used as a human model of DS.
# AHI lymphocytes = test: AP39 challenge of AHI lymphocytes; type: cell-based, human; details: AHI cells; 5 μM AP39; p<0.05; FIG. 10
# Description: as §1
SMILES,Nrf2 signal (Western blot) (Nrf2),cell proliferation (DS lymphocytes),viability versus untreated control (DS lymphocytes),cell proliferation (AHI lymphocytes)
O=C(O)CCCC[C@@H]1CCSS1 (racemic) [lipoic acid],some small increases in signal,–,–,–
O=C(CCCCCCCCC[P+](c1ccccc1)(c1ccccc1)c1ccccc1)Oc1ccc(-c2cc(=S)ss2)cc1.[Br-] [AP39],–,reduced,significant reduction in viability,reduced
